Data as given in US8852647B2, “Combinations of pyrimethanil and silver compounds” (Janssen Pharmaceutica, NV, priority 2007, dated 2014).
In brackets after ≈: the same amount, converted by molar mass. Where two headings read alike, the source gives them in different places.

Tests used:
Escherichia coli = test: Poison Plate Assay (Experiment 1), Escherichia coli; conditions: for MIC-values (minimum inhibitory concentration): ppm total active ingredient, Tryptose Agar, 27° C., evaluation after one week
Rhodoturula rubra = test: Poison Plate Assay (Experiment 1), Rhodoturula rubra; conditions: for MIC-values (minimum inhibitory concentration): ppm total active ingredient, Glucose Agar, 22° C., evaluation after two weeks
Aspergillus versicolor = test: Poison Plate Assay (Experiment 1), Aspergillus versicolor; conditions: ppm total active ingredient, Glucose Agar, 22° C., evaluation after two weeks; for MIC: Aspergillus versicolor, 336 h
[1] = system: Streptomyces griseus (g+); test: Poison Plate Assay (Experiment 2), Streptomyces griseus; assay type: cell-based; conditions: 120 h, Table 3, pyrimethanil with Microsil™, ppm total active ingredient, Tryptose Agar, 27° C., evaluation after 5 days, read-out: MIC-values (minimum inhibitory concentration)
From the text: [formula] wherein: • QA is the concentration of compound A in ppm, acting alone, which produced an end point (e.g. MIC), • Qa is the concentration of compound A in ppm, in the mixture, which produced an end point (e.g. MIC), • QB is the concentration of compound B in ppm, acting alone, which produced an end point (e.g. MIC), • Qb is the concentration of compound B in ppm, in the mixture, which produced an end point (e.g. MIC). When the Synergy Index is greater than 1.0, antagonism is indicated. When the SI is equal to 1.0, additivity is indicated.
Experiment 2: Poison Plate Assay • Name of the primary compound: —pyrimethanil (I) • Name of the silver salt: —Microsil™ from Avecom (Bloemendalestraat 138, 8730 Beernem, Belgium) • Microsil™ is a suspension of colloidal silver metal particles, produced by and clustered on probiotic bacteria. The diameter of the silver particles varies between 3 to 20 nm. The oxidation state of the silver in Microsil™ is 0 (Ag^0). • Microsil™ is produced as a suspension of finely dispersed colloidal Ag^0 particles, stabilized on a biological carrier molecule, in water. The probiotic carrier exists only as a non-viable and stabilizing biocomponent. • Stock solution: 1000 ppm in DMSO • Test combinations: […]

[2] = Table 1, pyrimethanil with silver nitrate
[3] = Table 2, pyrimethanil with silver perchlorate

Compound | MIC-values (minimum inhibitory concentration) (Escherichia coli; [2]) [ppm] | MIC-values (minimum inhibitory concentration) (Rhodoturula rubra; [2]) [ppm] | MIC-values (minimum inhibitory concentration) (Aspergillus versicolor; [2]) [ppm] | MIC (Escherichia coli; Escherichia coli, 168 h, read-out: MIC-values (minimum inhibitory concentration)) [µg/mL] | MIC-values (minimum inhibitory concentration) (Escherichia coli; [3]) [ppm] | MIC [1] [µg/mL] | MIC (Rhodoturula rubra; 336 h, read-out: MIC-values (minimum inhibitory concentration)) [µg/mL] | MIC-values (minimum inhibitory concentration) (Rhodoturula rubra; [3]) [ppm] | MIC (Aspergillus versicolor; read-out: MIC-values (minimum inhibitory concentration), Table 1, pyrimethanil with silver nitrate) [µg/mL] | MIC (Aspergillus versicolor; read-out: MIC-values (minimum inhibitory concentration), Table 2, pyrimethanil with silver perchlorate) [µg/mL]
O=[N+]([O-])[O-].[Ag+] [silver nitrate] | 66.67 | 118.65 | 118.65 |  |  |  |  |  |  | 
Cc1cc(C)nc(Nc2ccccc2)n1 [pyrimethanil, 4,6-dimethyl-N-phenyl-2-pyrimidinamine] |  |  |  | 667 (≈ 3350 µM) | 666.67 | 66.7 | 281 (≈ 1410 µM) | 281.25 | 667 (≈ 3350 µM) | 375 (≈ 1880 µM)
